Drawing on patent US20250382305A1 (PTC THERAPEUTICS, INC., priority 2022, published 2025), this text covers IC50 for 26 molecules.

In general, IC50 refers to the midpoint of a concentration-inhibition curve.

For assay [1], the system named is Total ATXN3 (tATXN3) protein. Briefly: Endogenous Total ATXN3 (tATXN3) Protein Assay (MSD immunoassay of cell lysates). It counts as cell-based. Particulars: average IC50, total ATXN3 protein in cell lysate after 48 h with compound (Table 1). Put shortly: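 By electrochemiluminescent MSD sandwich immunoassay (mouse monoclonal capture, rabbit monoclonal and SULFO-TAG anti-rabbit detection), endogenous ATXN3 was quantified in lysates of cells treated 48 h at 37° C at 10,000 cells/well. Treatment used a 7-point 3.16-fold duplicate dilution series, with average IC50 grouped into star categories.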

The next assay relates to ATXN3 pre-mRNA. Put plainly: RT-qPCR Assay to Quantify Exon 4 Skipping in ATXN3 pre-mRNA in Cells. The assay is classed as cell-based. Particulars: percent exon 4 skipping in ATXN3 pre-mRNA, RT-qPCR of cell lysates; average IC50. In outline:
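IC50 derives from a dose-response fit of percent exon 4 skipping, quantified by RT-qPCR on crude lysates. Compounds tested as 7-point 3.16-fold dilutions in duplicate; cells (10,000/well) were exposed for 24 h at 37 °C before lysis.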
(Real-time PCR tracks product formation cycle by cycle.)

As to `N[C@@H]1CC=CC[C@H]1c1sc2c(NCc3ccccc3)cc(Cl)nc2c1Br` [Compound 403, 2-((1R,6R)-6-aminocyclohex-3-en-1-yl)-N-benzyl-3-bromo-5-chlorothieno[3,2-b]pyridin-7-amine], the half-inhibitory concentration (IC50) in assay [1] lay within 300 to 1000 nM; in the assay with ATXN3 pre-mRNA it was 30 to 300 nM.
For `CCc1c([C@@H]2CCC[C@H]2N)sc2c(NCc3cccs3)cc(Cl)nc12` [Compound 12, 2-((1R,2R)-2-aminocyclopentyl)-5-chloro-3-ethyl-N-(thiophen-2-ylmethyl)thieno[3,2-b]pyridin-7-amine], in that order: over 1000 nM and over 1000 nM.
For `N[C@H]1CCCCC[C@H]1c1cc2nc(Cl)cc(NCc3cccs3)c2s1` [Compound 89, 2-((1R,2S)-2-aminocycloheptyl)-5-chloro-N-(thiophen-2-ylmethyl)thieno[3,2-b]pyridin-7-amine], in that order: over 1000 nM and over 1000 nM.
In the same order, the values of `N[C@H]1CCCO[C@@H]1c1c(Br)c2nc(Cl)nc(NCc3cccs3)c2n1C(F)F` [Compound 248, 6-((2S,3S)-3-aminotetrahydro-2H-pyran-2-yl)-7-bromo-2-chloro-5-(difluoromethyl)-N-(thiophen-2-ylmethyl)-5H-pyrrolo[3,2-d]pyrimidin-4-amine] are 30 to 300 nM and 30 to 300 nM.
For `N[C@H]1CCCCCC[C@H]1c1sc2c(NCc3cccs3)cc(Cl)nc2c1Cl` [Compound 91, 2-((1R,2S)-2-aminocyclooctyl)-3,5-dichloro-N-(thiophen-2-ylmethyl)thieno[3,2-b]pyridin-7-amine], the IC50 (in assay [1]; in the assay with ATXN3 pre-mRNA) was over 1000 nM each time.
Consider `N[C@H]1CCCO[C@@H]1c1c(Cl)c2nc(Cl)nc(NCc3ccco3)c2n1C(F)F` [Compound 244, 6-((2S,3S)-3-aminotetrahydro-2H-pyran-2-yl)-2,7-dichloro-5-(difluoromethyl)-N-(furan-2-ylmethyl)-5H-pyrrolo[3,2-d]pyrimidin-4-amine], for which the IC50 (in assay [1]; in the assay on ATXN3 pre-mRNA) was at most 30 nM in each case.
As for `C/C=C\CNc1cc(Cl)nc2c(Cl)c([C@H]3CCCC[C@@H]3N)sc12` [Compound 442, 2-((1S,2S)-2-aminocyclohexyl)-N-((Z)-but-2-en-1-yl)-3,5-dichlorothieno[3,2-b]pyridin-7-amine], the IC50 (in assay [1]; in the assay with ATXN3 pre-mRNA) was 30 to 300 nM throughout.
As for “5-(5-chloro-2-((2R,3R)-3-(methylamino)tetrahydro-2H-pyran-2-yl)-7-((thiophen-2-ylmethyl)amino)thieno[3,2-b]pyridin-3-yl)pent-4-yn-1-ol and 5-(5-chloro-2-((2S,3S)-3-(methylamino)tetrahydro-2H-pyran-2-yl)-7-((thiophen-2-ylmethyl)amino)thieno[3,2-b]pyridin-3-yl)pent-4-yn-1-ol [Compound 309]”, the half-inhibitory concentration (IC50) (in assay [1]; in the assay on ATXN3 pre-mRNA) was 30 to 300 nM each time.
Consider `N[C@@H]1CC=CC[C@H]1c1sc2c(NCc3ccncc3)cc(Cl)nc2c1Cl` [Compound 433, 2-((1R,6R)-6-aminocyclohex-3-en-1-yl)-3,5-dichloro-N-(pyridin-4-ylmethyl)thieno[3,2-b]pyridin-7-amine], for which the IC50 (in assay [1]; with ATXN3 pre-mRNA) was 30 to 300 nM each time.
On to `Cc1c([C@H]2CCC[C@@H]2N)sc2c(NCc3ccco3)cc(Cl)nc12` [Compound 120, 2-((1S,2S)-2-aminocyclopentyl)-5-chloro-N-(furan-2-ylmethyl)-3-methylthieno[3,2-b]pyridin-7-amine], for which the IC50 (in assay [1]; with ATXN3 pre-mRNA) was 30 to 300 nM each time.
Take `N[C@H]1CC=CC[C@@H]1c1sc2c(NCc3nccs3)nc(Cl)nc2c1Cl` [Compound 340, 6-((1S,6S)-6-aminocyclohex-3-en-1-yl)-2,7-dichloro-N-(thiazol-2-ylmethyl)thieno[3,2-d]pyrimidin-4-amine]: the IC50 (in assay [1]; in the assay on ATXN3 pre-mRNA) was 30 to 300 nM throughout.
Turning to `N[C@@H]1[C@@H](O)C=CC[C@H]1c1sc2c(NCc3cccs3)cc(Cl)nc2c1Cl.N[C@H]1[C@H](O)C=CC[C@@H]1c1sc2c(NCc3cccs3)cc(Cl)nc2c1Cl` (mixture of isomers) [Compound 127, (1R,5S,6R)-6-amino-5-(3,5-dichloro-7-((thiophen-2-ylmethyl)amino)thieno[3,2-b]pyridin-2-yl)cyclohex-2-en-1-ol and (1S,5R,6S)-6-amino-5-(3,5-dichloro-7-((thiophen-2-ylmethyl)amino)thieno[3,2-b]pyridin-2-yl)cyclohex-2-en-1-ol], the IC50 (in assay [1]; in the assay with ATXN3 pre-mRNA) was 30 to 300 nM throughout.
Regarding `Cc1c([C@H]2CCCC[C@@H]2N)sc2c(NCc3ccco3)cc(Cl)nc12` [Compound 231, 2-((1S,2S)-2-aminocyclohexyl)-5-chloro-N-(furan-2-ylmethyl)-3-methylthieno[3,2-b]pyridin-7-amine], the half-inhibitory concentration (IC50) (in assay [1]; in the assay with ATXN3 pre-mRNA) was at most 30 nM in each case.
For “2-((1R,6S)-6-amino-2,2-difluorocyclohexyl)-N-(but-2-yn-1-yl)-5-chloro-3-iodothieno[3,2-b]pyridin-7-amine and 2-((1S,6R)-6-amino-2,2-difluorocyclohexyl)-N-(but-2-yn-1-yl)-5-chloro-3-iodothieno[3,2-b]pyridin-7-amine [Compound 383]”, the half-maximal inhibitory concentration (IC50) (in assay [1]; in the assay with ATXN3 pre-mRNA) was 30 to 300 nM each time.
As for “4-(2-((1R,6R)-6-aminocyclohex-3-en-1-yl)-5-chloro-7-((thiophen-2-ylmethyl)amino)thieno[3,2-b]pyridin-3-yl)but-3-yn-1-ol and 4-(2-((1S,6S)-6-aminocyclohex-3-en-1-yl)-5-chloro-7-((thiophen-2-ylmethyl)amino)thieno[3,2-b]pyridin-3-yl)but-3-yn-1-ol [Compound 177]”, the concentration for half-maximal inhibition (IC50) (in assay [1]; in the assay on ATXN3 pre-mRNA) was at most 30 nM in each case.
For the molecule `N[C@H]1CCCC[C@@H]1c1sc2c(NCc3cccs3)cc(Cl)nc2c1-c1ccccc1` [Compound 129], the figures for the IC50 (in assay [1]; in the assay on ATXN3 pre-mRNA) were 300 to 1000 nM and 30 to 300 nM, respectively.
In the same order, the values of `N[C@@H]1CCCO[C@H]1c1c(Br)c2nc(Cl)cc(NCc3ccco3)c2n1C(F)F` [Compound 426, 2-((2R,3R)-3-aminotetrahydro-2H-pyran-2-yl)-3-bromo-5-chloro-1-(difluoromethyl)-N-(furan-2-ylmethyl)-1H-pyrrolo[3,2-b]pyridin-7-amine] are 300 to 1000 nM and 30 to 300 nM.
In the same order, the values of `N[C@H]1CC=CC[C@@H]1c1sc2c(NCc3cccs3)cc(Cl)nc2c1C#CCCCCCO` [Compound 320, 7-(2-((1S,6S)-6-aminocyclohex-3-en-1-yl)-5-chloro-7-((thiophen-2-ylmethyl)amino)thieno[3,2-b]pyridin-3-yl)hept-6-yn-1-ol] are 30 to 300 nM and 30 to 300 nM.
In the same order, the values of “2-((1R,2R)-2-aminocyclohexyl)-5-chloro-3-(prop-1-yn-1-yl)-N-(thiophen-2-ylmethyl)thieno[3,2-b]pyridin-7-amine and 2-((1S,2S)-2-aminocyclohexyl)-5-chloro-3-(prop-1-yn-1-yl)-N-(thiophen-2-ylmethyl)thieno[3,2-b]pyridin-7-amine [Compound 189]” are at most 30 nM and at most 30 nM.
`N[C@@H]1COCC[C@H]1c1sc2c(NCc3nccs3)cc(Cl)nc2c1Cl` [Compound 407, 2-((3S,4R)-3-aminotetrahydro-2H-pyran-4-yl)-3,5-dichloro-N-(thiazol-2-ylmethyl)thieno[3,2-b]pyridin-7-amine]: the IC50 (in assay [1]; with ATXN3 pre-mRNA) was 30 to 300 nM throughout.
In the case of `N[C@H]1CCC(=O)C[C@@H]1c1sc2c(NCc3ccco3)cc(Cl)nc2c1Cl` [Compound 221, (3S,4S)-4-amino-3-(3,5-dichloro-7-((furan-2-ylmethyl)amino)thieno[3,2-b]pyridin-2-yl)cyclohexan-1-one], the IC50 (in assay [1]; with ATXN3 pre-mRNA) was at most 30 nM in each case.
For “3-bromo-5-chloro-2-((1R,2R)-2-(methylamino)cyclohexyl)-N-(thiophen-2-ylmethyl)thieno[3,2-b]pyridin-7-amine and 3-bromo-5-chloro-2-((1S,2S)-2-(methylamino)cyclohexyl)-N-(thiophen-2-ylmethyl)thieno[3,2-b]pyridin-7-amine [Compound 375]”, the IC50 (in assay [1]; in the assay on ATXN3 pre-mRNA) was 30 to 300 nM throughout.
Regarding `N[C@H]1CC=CC[C@@H]1c1sc2c(NCc3cccs3)cc(Cl)nc2c1C#Cc1cccnc1` [Compound 307, 2-((1S,6S)-6-aminocyclohex-3-en-1-yl)-5-chloro-3-(pyridin-3-ylethynyl)-N-(thiophen-2-ylmethyl)thieno[3,2-b]pyridin-7-amine], the IC50 (in assay [1]; in the assay on ATXN3 pre-mRNA) was 30 to 300 nM each time.
As for “2-(3-aminotetrahydro-2H-pyran-2-yl)-N-benzyl-3-bromo-5-chlorothieno[3,2-b]pyridin-7-amine [Compound 27]”, the 50% inhibitory concentration (IC50) in assay [1] is 30 to 300 nM; with ATXN3 pre-mRNA it was at most 30 nM.
In the same order, the values of “2-((2R,3R)-3-aminobicyclo[3.2.1]octan-2-yl)-3-bromo-5-chloro-N-(thiophen-2-ylmethyl)thieno[3,2-b]pyridin-7-amine and 2-((2S,3S)-3-aminobicyclo[3.2.1]octan-2-yl)-3-bromo-5-chloro-N-(thiophen-2-ylmethyl)thieno[3,2-b]pyridin-7-amine [Compound 85]” are over 1000 nM and over 1000 nM.
In the same order, the values of `N[C@H]1CCCO[C@@H]1c1c(Cl)c2nc(Cl)nc(NCc3ccco3)c2n1C(F)F` [Compound 271, 6-((2S,3S)-3-aminotetrahydro-2H-pyran-2-yl)-2,7-dichloro-5-(difluoromethyl)-N-(furan-2-ylmethyl)-5H-pyrrolo[3,2-d]pyrimidin-4-amine] are 30 to 300 nM and 30 to 300 nM.
